Data reported in PubChem BioAssay (NCI).
Values joined by “and” are separate entries in the source; they are usually repeats but may differ in a detail not shown here. Equal values may be shown once.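 Following 48 hours of exposure in 96-well plates, responses at five concentrations were used to interpolate endpoints linearly. GI50: concentration for 50% inhibition of growth. TGI: concentration producing complete growth inhibition.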

Legend:
Experiment in all cases: inhibition of tumour cell growth, NCI panel, 48 h
DMS 273 small cell lung = system: DMS 273 small cell lung
SNB-78 CNS = system: SNB-78 CNS
786-0 renal = system: 786-0 renal
BT-549 breast = system: BT-549 breast
DU-145 prostate = system: DU-145 prostate
HS 578T breast = system: HS 578T breast
MDA-MB-231 breast = system: MDA-MB-231 breast
MDA-MB-435 = system: MDA-MB-435
MDA-N = system: MDA-N
PC-3 prostate = system: PC-3 prostate
T-47D breast = system: T-47D breast

| SMILES | TGI (SNB-78 CNS) [µM] | TGI (786-0 renal) [µM] | TGI (BT-549 breast) [µM] | TGI (DU-145 prostate) [µM] | TGI (HS 578T breast) [µM] | TGI (MDA-MB-231 breast) | TGI (MDA-MB-435) [µM] | TGI (MDA-N) [µM] | TGI (PC-3 prostate) [µM] | TGI (T-47D breast) [µM] | other results |
| --- | --- | --- | --- | --- | --- | --- | --- | --- | --- | --- | --- |
| CCCCCCCCCCCCCCCCCC(=O)OCC1OC(OC)C(NC(=O)N(CCCl)N=O)C(O)C1O (stereo not drawn) | > 100 | – | – | – | – | – | – | – | – | – | TGI (DMS 273 small cell lung): 56.9 µM |
| CCOC(=O)C12CC(C)=C(C)CC1CCCc1ccccc12 (stereo not drawn) | – | > 100 | > 100 | > 100 | > 100 | 31.5 µM | 97.2 | 86.6 | 68.1 | 55.5 | – |
| Cc1cc2c(cc1Cl)SC(c1ccccc1O)NS2(=O)=O (stereo not drawn) | – | > 100 | > 100 | > 100 | > 100 | > 100 µM | > 100 | – | > 100 | 55.1 | – |
| Cn1c(=O)ccc2c(=O)c3ccccc3oc21 | – | – | – | > 100 | > 100 | > 100 µM | > 100 | > 100 | > 100 | > 100 | – |
| O=C(CSSCC(=O)OCCS(=O)(=O)Nc1ccc(Br)cc1)OCCS(=O)(=O)Nc1ccc(Br)cc1 | 71.3 | – | – | – | – | – | – | – | – | – | TGI (DMS 273 small cell lung): 40.3 µM |
| Cc1cn(Cc2cn(CC3OC(n4cc(C)c(=O)[nH]c4=O)CC3O)nn2)c(=O)[nH]c1=O (stereo not drawn) | – | – | > 100 | > 100 | > 100 | > 100 µM | > 100 | > 100 | > 100 | > 100 | – |
| N=C(N)c1ccc(N=Nc2c(O)ccc3cc4c(N=Nc5ccc(C(=N)N)cc5)c(O)ccc4cc23)cc1 | – | > 100 | > 100 | > 100 | > 100 | > 100 µM | > 100 | > 100 | > 100 | > 100 | – |
| CC(C)(C)c1cc(-c2nc3ccc(N4CCN(CCO)CC4)cc3[nH]2)cc(C(C)(C)C)c1O | – | – | – | > 100 | 4.68 | – | – | – | – | > 100 | GI50 (DU-145 prostate): 4.08 µM; GI50 (HS 578T breast): 1.73 µM; GI50 (T-47D breast): 2.86 µM |
| CCCC[C@H]1C(=O)O[C@H](C)[C@H](NC(=O)c2cccc(NC=O)c2OC)C(=O)O[C@@H](C)[C@@H]1OC(=O)CC(C)C (tested in a mixture with another compound) | – | 29.3 | 40.1 | 55.7 | 63.1 | 29.8 µM | 25.6 | 50.3 | 32.6 | 44.5 | – |
| COc1cc(C2C(=O)C(Cl)N2Nc2nc(C)cc(=O)[nH]2)cc(OC)c1OC (stereo not drawn) | 65.8 | – | – | – | – | – | – | – | – | – | TGI (DMS 273 small cell lung): 24.2 µM |
| O=C(NC(Cc1ccc(Cl)cc1)C(=O)O)c1ccc(I)cc1 (stereo not drawn) | > 100 | – | – | – | – | – | – | – | – | – | TGI (DMS 273 small cell lung): > 100 µM |
| Cc1ccc2c3c1[C@@H]1O[C@@H]1c1cccc(c1-3)[C@@H]1O[C@H]21 | – | – | 32.7 | 22.9 | 60.2 | 36.2 µM | 31.4 | 30.5 | 30.7 | 20.9 | – |
| COc1ccc(N=Nc2c(N)nn(C)c2N)cc1 | > 100 | > 100 | – | – | – | – | – | – | – | – | TGI (DMS 273 small cell lung): > 100 µM |
| C/C(=C\C(=N\NC(=N)N)c1ccccc1)c1ccccc1 | – | 11.3 | – | 9.49 | 18.5 | – | 2.97 | 2.7 | 3.21 | 2.81 | – |
| O=c1[nH]c(=O)n(CCOCP(=O)(O)O)nc1Br | – | – | > 100 | > 100 | > 100 | > 100 µM | > 100 | > 100 | > 100 | > 100 | – |
| Cc1cc(=O)n2c3c(c4c(cc13)c(CN(C)C)cc(=O)n4C)OC2 | – | > 100 | 83.8 | > 75.9 | 41.1 | 98.7 µM | > 58.2 | > 87.7 | > 59.2 | > 100 | – |

| SMILES | TGI (SNB-78 CNS) [µM] | TGI (786-0 renal) [µM] | TGI (BT-549 breast) [µM] | TGI (DU-145 prostate) [µM] | TGI (HS 578T breast) [µM] | TGI (MDA-MB-231 breast) | TGI (MDA-MB-435) [µM] | TGI (MDA-N) [µM] | TGI (PC-3 prostate) [µM] | TGI (T-47D breast) [µM] | other results |
| --- | --- | --- | --- | --- | --- | --- | --- | --- | --- | --- | --- |
| O=c1[nH]c2cc([N+](=O)[O-])c(N/N=C/c3ccc(Cl)cc3Cl)c([N+](=O)[O-])c2[nH]1 | – | > 100 | > 100 | > 100 | > 100 | 60.5 µM | > 100 | > 100 | > 100 | > 100 | – |
| O=S(=O)(O)c1ccc2c(N=Nc3ccccc3)c(O)ccc2c1 | – | > 100 | > 100 | > 100 | > 100 | > 100 µM | > 100 | > 100 | > 100 | > 100 | – |
| Cc1ccc(C(=O)Nc2ncn(C3CC(O)C(CO)O3)c(=O)n2)cc1 (stereo not drawn) | > 100 | – | – | – | – | – | – | – | – | – | TGI (DMS 273 small cell lung): > 100 µM |
| CCCCCCCCCCCCSC(=S)c1c(C)[nH]n(CCCCCCCCCCCC)c1=O | > 100 | – | – | – | – | – | – | – | – | – | – |
| COC(=O)c1ccc2c(c1)sc1nc(-c3ccc(OC)cc3)cn12 | – | > 100 | > 100 | > 100 | > 100 | > 100 µM | > 100 | > 100 | > 100 | > 100 | – |
| COc1cccc(NC(=O)CC(=O)NN2C(=O)/C(=C/c3ccc(N(CCC#N)CCC#N)cc3)N=C2c2cc([N+](=O)[O-])ccc2Cl)c1 | > 100 | – | – | – | – | – | – | – | – | – | TGI (DMS 273 small cell lung): > 100 µM |
| N#Cc1c(-c2ccc(Cl)cc2)c2c([nH]c1=O)-c1cc([N+](=O)[O-])ccc1CCC2 | – | 79.9 | 36.3 | > 100 | 99.2 | 57.3 µM | > 100 | > 100 | > 100 | > 100 | – |
| C=C1CC2C3C=C(C)C4=CC(=O)CC[C@]4(C)C3CC[C@]2(C)[C@@]1(OC(C)=O)C(C)=O (stereo partly drawn) | – | – | – | > 100 | > 100 | – | – | – | > 100 | – | GI50 (DU-145 prostate): > 100 µM; GI50 (HS 578T breast): 43.5 µM; GI50 (PC-3 prostate): 2.55 µM |
| COc1ccc2c(c1)CCCc1c-2nc2ccccc2c1N | – | 18.5 | 31 | 26.1 | 45.3 | 19 µM | 24.8 | 21.9 | 23.4 | 31.3 | – |
| Cn1c2cn[nH]c(=O)c2c2ccc3ccccc3c21 | – | 42.1 | > 100 | > 100 | 53.1 | 57.6 µM | > 100 | > 100 | > 100 | > 100 | – |
| COP(=O)(OC)[C@H](O)[C@H]1C[C@@H]1c1ccccc1 | – | – | > 100 | > 100 | > 100 | > 100 µM | > 100 | – | > 100 | > 100 | – |
| COc1ccc(N=Cc2ccc(N(CCC#N)S(=O)(=O)c3ccccc3)cc2C)cc1 | > 100 | – | – | – | – | – | – | – | – | – | – |
| C[C@H]1CCC/C=C/[C@@H]2C[C@H](O)C[C@H]2[C@H](O)/C=C/C(=O)O1 | > 100 | – | – | – | > 100 | 0.0821 µM and 0.0399 µM | – | – | – | – | GI50 (DMS 273 small cell lung): 0.0305 µM; TGI (DMS 273 small cell lung): 0.148 µM; GI50 (DU-145 prostate): 0.0785 µM and 0.218 µM and 0.248 µM; GI50 (MDA-MB-231 breast): < 0.01 µM and 0.0205 µM and 0.0547 µM; GI50 (MDA-MB-435): < 0.0173 µM and 0.0369 µM and 0.0449 µM; GI50 (PC-3 prostate): < 0.0202 µM and 0.0475 µM and 0.0478 µM; GI50 (SNB-78 CNS): 0.0324 µM; GI50 (T-47D breast): 0.0809 µM and 0.619 µM |
| O=C(O)CCCN=C(C1=C(O)C(=O)N(c2ccccc2)C1=O)c1ccccc1 | – | > 100 | > 100 | > 100 | > 100 | > 100 µM | > 100 | > 100 | > 100 | > 100 | – |
| CCN(CCO)CCNc1ccc(C)c2sc3ccccc3c(=O)c12 | 20.6 | 8.57 | 26.7 | 21.8 | 7.49 | 5.32 µM | 3.74 | 3.16 | 12.7 | 7.43 | TGI (DMS 273 small cell lung): 6.94 µM |
